Test: Cyclic voltammetry of electrolytes for 100 cycles
Assay type: physicochemical
Settings: in the electrolytes of Examples 1 and 2 (GBL, 0.5 M TEABF4), cyclic voltammetry 100 cycles
Protocol: A current value as a function of potential was measured for 100 cycles by using each of the electrolytes of Examples 1 and 2, at a potential scan rate of 10 mV/s and in a potential scan range of about −2 V to about 1.25 V. A cell for measuring the cyclic voltammogram included an Ag/Ag^+ electrode in which 0.3 M of AgNO3 was dissolved in acetonitrile as a solvent as a reference electrode, carbon felt as a working electrode, and platinum as a counter electrode. The measurement results are illustrated in FIGS. 6A and 6B.

O=S(=O)([N-]S(=O)(=O)C(F)(F)F)C(F)(F)F.O=S(=O)([N-]S(=O)(=O)C(F)(F)F)C(F)(F)F.[Ni+2].c1ccc(-c2ccccn2)nc1.c1ccc(-c2ccccn2)nc1.c1ccc(-c2ccccn2)nc1 [Preparation Example 1, Ni(bpy)3(TFSI)2]
stability of the redox couple of the metal salt in the electrolyte: stable
